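Step 1: Grow cells in 96-well plates. Step 2: Expose to compound for 48 hours at 5 concentrations. Step 3: Interpolate endpoints linearly; if unreached, use highest concentration. GI50 marks 50% less growth.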 Active and inactive are the calls of the source. No stated cut-off is given here; in the data, active = GI50 up to about 1.1 µM and inactive = higher.
Legend:
Assay in all cases: NCI tumour cell line growth inhibition, 48 h
KM12 = test system: KM12
RPMI-8226 = test system: RPMI-8226
OVCAR-3 = test system: OVCAR-3
MDA-MB-435 = test system: MDA-MB-435
MDA-MB-231 = test system: MDA-MB-231
ACHN = test system: ACHN
MDA-N = test system: MDA-N
SN12C = test system: SN12C
A549 = test system: A549
SK-MEL-5 = test system: SK-MEL-5
NCI/ADR-RES = test system: NCI/ADR-RES
M14 = test system: M14
EKVX = test system: EKVX
HOP-92 = test system: HOP-92
CAKI-1 = test system: CAKI-1
HCC 2998 = test system: HCC 2998
IGROV-1 = test system: IGROV-1

Measured: GI50

Clc1c2nc3ccccc3c-2[nH]c2ccccc12
inactive: KM12 3.94 µM | RPMI-8226 7.96 µM | OVCAR-3 69.7 µM | MDA-MB-435 5.11 µM | MDA-MB-231 11.7 µM | ACHN 21.3 µM | MDA-N 3.57 µM | SN12C 32.7 µM | A549 34 µM | SK-MEL-5 3.95 µM | NCI/ADR-RES 23.4 µM | M14 36.2 µM | EKVX 10.6 µM | HOP-92 > 100 µM | CAKI-1 9.16 µM | HCC 2998 24.5 µM | IGROV-1 9.68 µM

CN1CCN(C2CC(=O)c3c(Cl)sc(Cl)c32)CC1 (centres undefined)
inactive: KM12 10.8 µM | RPMI-8226 4.36 µM | OVCAR-3 16.3 µM | MDA-MB-435 7.05 µM | MDA-MB-231 20 µM | ACHN 18.5 µM | MDA-N 9.02 µM | SN12C 13.2 µM | A549 21.3 µM | SK-MEL-5 30.1 µM | NCI/ADR-RES 16.4 µM | M14 6.82 µM | EKVX 23.9 µM | HOP-92 10.4 µM | CAKI-1 21.8 µM | HCC 2998 8.87 µM | IGROV-1 8.69 µM

O=C1Nc2cccc(Cl)c2/C1=C\c1c(Cl)nc2sccn12
inactive: KM12 > 100 µM | RPMI-8226 > 100 µM | OVCAR-3 > 100 µM | MDA-MB-435 > 100 µM | MDA-MB-231 16.3 µM | ACHN 12.2 µM | MDA-N > 100 µM | SN12C 29.6 µM | A549 > 100 µM | SK-MEL-5 > 100 µM | NCI/ADR-RES 55.1 µM | M14 50.2 µM | EKVX 43.3 µM | HOP-92 16.8 µM | CAKI-1 43.2 µM | HCC 2998 > 100 µM | IGROV-1 28 µM

COc1ccc(CC2OC3(CCCCC3)CC3CCCCN32)cc1 (centres undefined)
inactive: KM12 > 100 µM | RPMI-8226 23.4 µM | OVCAR-3 46 µM | MDA-MB-435 50 µM | MDA-MB-231 10.3 µM | ACHN > 100 µM | MDA-N 52.6 µM | SN12C > 100 µM | A549 > 100 µM | SK-MEL-5 49.2 µM | NCI/ADR-RES 50.1 µM | M14 76.6 µM | EKVX > 100 µM | HOP-92 98.9 µM | CAKI-1 > 100 µM | HCC 2998 > 100 µM | IGROV-1 > 100 µM

COC(=O)/C=C\C(C#N)(C#N)/N=C/c1cccc(OC)c1
inactive: KM12 16.4 µM | RPMI-8226 2.71 µM | OVCAR-3 11.5 µM | MDA-MB-435 6.5 µM | MDA-MB-231 13.2 µM | ACHN 2.61 µM | MDA-N 7.03 µM | SN12C 11.9 µM | A549 17.9 µM | SK-MEL-5 16.8 µM | NCI/ADR-RES 14.4 µM | M14 4.12 µM | EKVX 11.6 µM | HOP-92 2.3 µM | CAKI-1 1.92 µM | HCC 2998 16.3 µM | IGROV-1 11.7 µM

COc1c(-c2ccc(O)c(O)c2)oc2c(O)c(O)cc(O)c2c1=O
inactive: KM12 66.5 µM | RPMI-8226 31.8 µM | OVCAR-3 56.8 µM | MDA-MB-435 31 µM | MDA-MB-231 > 100 µM | ACHN > 100 µM | MDA-N 61.5 µM | SN12C 16.9 µM | A549 69.2 µM | SK-MEL-5 45.4 µM | NCI/ADR-RES > 100 µM | M14 > 10 µM | EKVX > 100 µM | HOP-92 > 100 µM | CAKI-1 64.6 µM | HCC 2998 > 100 µM | IGROV-1 24.7 µM

Cc1ccc(/C=N\NC(=O)c2ccncc2)s1
inactive: KM12 > 100 µM | RPMI-8226 > 100 µM | OVCAR-3 > 100 µM | MDA-MB-435 > 100 µM | MDA-MB-231 > 100 µM | ACHN > 100 µM | MDA-N > 100 µM | SN12C > 100 µM | A549 > 100 µM | SK-MEL-5 > 100 µM | NCI/ADR-RES > 100 µM | M14 > 100 µM | EKVX > 100 µM | HOP-92 > 100 µM | CAKI-1 > 100 µM | HCC 2998 > 100 µM | IGROV-1 > 100 µM

O=C(O)CCC(NC(=O)c1ccc(Nc2nc3ccccc3nc2C(=O)O)cc1)C(=O)O (centres undefined)
inactive: KM12 > 100 µM | RPMI-8226 > 100 µM | OVCAR-3 > 100 µM | MDA-MB-435 > 100 µM | MDA-MB-231 > 100 µM | ACHN > 100 µM | MDA-N > 100 µM | SN12C > 100 µM | A549 > 100 µM | SK-MEL-5 > 100 µM | NCI/ADR-RES > 100 µM | M14 > 100 µM | EKVX > 100 µM | HOP-92 > 100 µM | CAKI-1 > 100 µM | HCC 2998 > 100 µM | IGROV-1 > 100 µM

COc1cccc(/N=N/C(=N\NC(=O)c2ccc(C)cc2)c2ccc(N(CCC#N)CCC#N)cc2C)c1
inactive: KM12 73.5 µM | RPMI-8226 > 100 µM | OVCAR-3 37.6 µM | MDA-MB-435 64.3 µM | MDA-MB-231 63.1 µM | ACHN > 100 µM | MDA-N > 100 µM | SN12C > 100 µM | A549 > 100 µM | SK-MEL-5 > 100 µM | NCI/ADR-RES > 100 µM | M14 > 100 µM | EKVX 66.5 µM | HOP-92 > 100 µM | CAKI-1 > 100 µM | HCC 2998 > 100 µM | IGROV-1 > 100 µM

Cc1ccc2nc(Cl)c(/C=N/N3C(=O)/C(=C/Cc4ccco4)N=C3c3ccccc3)cc2c1
inactive: KM12 3.33 µM | RPMI-8226 27 µM | OVCAR-3 71.1 µM | MDA-MB-435 2.1 µM | MDA-MB-231 67.8 µM | ACHN 72.3 µM | MDA-N 16.9 µM | SN12C 26.5 µM | A549 36.4 µM | SK-MEL-5 56.4 µM | NCI/ADR-RES 28.4 µM | M14 27.7 µM | EKVX 30.5 µM | HOP-92 28.9 µM | CAKI-1 5.04 µM | HCC 2998 28.6 µM | IGROV-1 23.1 µM

NC(=O)c1ncn2c(=O)n(CCl)nnc12
inactive: KM12 > 100 µM | RPMI-8226 24.3 µM | OVCAR-3 > 100 µM | MDA-MB-435 > 100 µM | MDA-MB-231 > 100 µM | ACHN 47.9 µM | MDA-N > 100 µM | SN12C > 100 µM | A549 > 100 µM | SK-MEL-5 > 100 µM | NCI/ADR-RES 48.9 µM | M14 > 100 µM | EKVX > 100 µM | HOP-92 > 100 µM | CAKI-1 > 100 µM | HCC 2998 > 100 µM | IGROV-1 > 100 µM

C[N+](C)(C)CCCCCc1c2nc(c(CCCCC[N+](C)(C)C)c3ccc([nH]3)c(CCCCC[N+](C)(C)C)c3nc(c(CCCCC[N+](C)(C)C)c4ccc1[nH]4)C=C3)C=C2
inactive: KM12 > 100 µM | RPMI-8226 > 100 µM | OVCAR-3 > 100 µM | MDA-MB-435 > 100 µM | MDA-MB-231 > 100 µM | ACHN > 100 µM | MDA-N > 100 µM | SN12C > 100 µM | A549 87.9 µM | SK-MEL-5 > 100 µM | NCI/ADR-RES > 100 µM | M14 > 100 µM | EKVX 99.8 µM | HOP-92 > 100 µM | CAKI-1 > 100 µM | HCC 2998 > 100 µM | IGROV-1 > 100 µM

— ChEMBL document CHEMBL1201862, “PubChem BioAssay data set” (2004)
